In experiment [1] the test system is Escherichia coli (E. coli) persister cells. Put plainly: Anti-persister activity test, persister cells. The following applies: Escherichia coli; concentration used 200 μM, 4 hours treatment; read-out: Persister cell survival rate 96 h. The format is cell-based. As to the method: (§1) Anti-persister activity test: Escherichia coli (E. coli) persister cells were generated and isolated as described by MARQUES, C. N. H. et al. (Applied and Environmental Microbiology 2014, Vol. 80, No. 22, pp. 6976-6991). E. coli persister cells were compared to E. coli non-persister cells. 1 mL persister or non-persister bacteria culture was added in a 1.5 mL microtube with each of the compounds to be tested or ciprofloxacin as a […], and incubated at 37° C. with 160 rpm shaking for 4 hours. After 4 hours treatment with the compounds, the microtubes were centrifuged at 3,500g for 5 minutes and the pellets were resuspended in 1 mL of fresh drug free RM broth (10 g/L M9 salt, 2% casamino acids, 1 mM MgCl2, 1% glycerol). Resuspended bacteria were then plated over LB agar plates and incubated at 37° C. Bacterial colonies were enumerated after 24, 48 and 96 hours to estimate the survival rate.

The subject of experiment [2] is E. coli non-persister cells. Put plainly: Anti-persister activity test, non-persister cells. The note with it: Escherichia coli; concentration used 200 μM, 4 hours treatment; read-out: Non-persister cell survival rate 96 h. The format is cell-based, Escherichia coli. The protocol: as §1
Experiment [3] deals with Pseudomonas aeruginosa (ATCC27853). Put plainly: Microdilution MIC assay (CLSI-based), P. aeruginosa. The format is cell-based. The following applies: Pseudomonas aeruginosa, ATCC27853, 20 h, 20 hours incubation at 35-37° C., MHB; read-out: Minimum inhibitory concentration P. aeruginosa ATCC27853. The method, boiled down: (§2)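 Broth microdilution per modified CLSI guidelines in Mueller Hinton broth, 200 μL, inoculum ca. 5×10^5 CFU/mL; compounds tested as salts, twofold dilutions from 0.2 mg/mL, in triplicate. MIC determined from OD at 620 nm after incubation.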

For experiment [4], the system named is Staphylococcus aureus (ATCC25923). Put plainly: Microdilution MIC assay (CLSI-based), S. aureus. The format is cell-based. The note with it: Staphylococcus aureus, ATCC25923, 20 h, 20 hours incubation at 35-37° C., MHB; read-out: Minimum inhibitory concentration S. aureus ATCC25923. The method, boiled down:
as §2

The next experiment concerns CHO-K1 cells. Put plainly: WST1 cytotoxicity test. The note with it: Cricetulus griseus, CHO-K1, 24 h, WST1, 24 hours at 37° C.; read-out: IC50 CHO. The format is cell-based, Chinese hamster. The method, boiled down:
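CHO-K1 cells pre-cultured 24 h, then exposed 24 h at 37 °C to increasing compound concentrations. Viability read as WST-1 formazan absorbance at 450 nm after 20 min; dose-response fitted by nonlinear regression.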

Experiment [5] concerns Escherichia coli (ATCC28922). The experiment can be described thus: Microdilution MIC assay (CLSI-based), E. coli. The format is cell-based. The following applies: Escherichia coli, ATCC28922, 20 h, 20 hours incubation at 35-37° C., MHB; read-out: Minimum inhibitory concentration E. coli ATCC28922. The procedure, abridged:
as §2

For experiment [6], the system named is Enterococcus faecalis (ATCC29212). The experiment can be described thus: Microdilution MIC assay (CLSI-based), E. faecalis. The format is cell-based. The note with it: Enterococcus faecalis, ATCC29212, 20 h, 20 hours incubation at 35-37° C., MHB; read-out: Minimum inhibitory concentration E. faecalis ATCC29212. The method, boiled down: as §2

“And” between values parts separate entries of the source, which are not always exact repeats. Equal entries are not always repeated.

On to `O=C(O)c1cn(C2CC2)c2cc(N3CCNCC3)c(F)cc2c1=O` [Ciprofloxacin, ciprofloxacin, reference compound], for which the viability at 200 µM in experiment [1] is 5.6%; in experiment [2] it was 0%.
`COC(=O)[C@@H](NC(=O)CC[C@@H](C)[C@H]1CCC2C3C(CC[C@@]21C)[C@@]1(C)CC[C@H](NCCNCCNCCNCCN)C[C@H]1C[C@H]3O)C(C)C` (stereo partly drawn) [Compound S049, methyl ((4R)-4-((3S,5S,7R,10S,13R,17R)-3-((2-((2-((2-((2-aminoethyl)amino)ethyl)amino)ethyl)amino)ethyl)amino)-7-hydroxy-10,13-dimethylhexadecahydro-1H-cyclopenta[a]phenanthren-17-yl)pentanoyl)-L-valinate]: the MIC in experiment [3] is 100 µM and 64 µg/mL; in experiment [4] it was 50 µM and 32 µg/mL; in experiment [5] it was 100 µM and 64 µg/mL; in experiment [6], 100 µM and 64 µg/mL. For the same compound, the IC50 in the experiment on CHO-K1 cells was 94.9 µM and 64.2 µg/mL.
Regarding `CC[C@@H](C)[C@H](NC(=O)CC[C@@H](C)[C@H]1CCC2C3C(CC[C@@]21C)[C@@]1(C)CC[C@H](NCCCNCCCN)C[C@H]1C[C@H]3O)C(=O)OC` (stereo partly drawn) [Compound S050, methyl (2S,3R)-2-((4R)-4-((3S,5S,7R,10S,13R,17R)-3-((3-((3-aminopropyl)amino)propyl)amino)-7-hydroxy-10,13-dimethylhexadecahydro-1H-cyclopenta[a]phenanthren-17-yl)pentanamido)-3-methylpentanoate], the MIC is 50 µM and 32 µg/mL in experiment [3]; 3.12 µM and 2 µg/mL in experiment [4]; 12.5 µM and 8 µg/mL in experiment [5]; 25 µM and 16 µg/mL in experiment [6]. Further, the IC50 with CHO-K1 cells is 10.5 µM and 6.63 µg/mL.
For the compound `COC(=O)CNC(=O)CC[C@@H](C)[C@H]1CCC2C3C(C[C@H](O)[C@@]21C)[C@@]1(C)CC[C@H](NCCCNCCCCNCCCN)C[C@H]1C[C@H]3O` (stereo partly drawn) [Compound S051, methyl ((4R)-4-((3S,5S,7R,10S,12S,13R,17R)-3-((3-((4-((3-aminopropyl)amino)butyl)amino)propyl)amino)-7,12-dihydroxy-10,13-dimethylhexadecahydro-1H-cyclopenta[a]phenanthren-17-yl)pentanoyl)glycinate], the MIC in experiment [3] is 25 µM and 16 µg/mL; in experiment [4] it was 6.25 µM and 4 µg/mL; in experiment [5], 25 µM and 16 µg/mL; in experiment [6] it was 50 µM and 32 µg/mL. Besides, the IC50 in the experiment on CHO-K1 cells was 33.3 µM and 22.1 µg/mL.
As to `COC(=O)[C@H](NC(=O)CC[C@@H](C)[C@H]1CCC2C3CC[C@@H]4C[C@@H](NCCCN5CCN(CCCN)CC5)CC[C@]4(C)C3C[C@H](O)[C@@]21C)C(C)C` (stereo partly drawn) [Compound S053, methyl ((4R)-4-((3S,5R,10S,12S,13R,17R)-3-((3-(4-(3-aminopropyl)piperazin-1-yl)propyl)amino)-12-hydroxy-10,13-dimethylhexadecahydro-1H-cyclopenta[a]phenanthren-17-yl)pentanoyl)-D-valinate], the MIC in experiment [3] is > 200 µM and > 128 µg/mL; in experiment [4], 12.5 µM and 8 µg/mL; in experiment [5] it was 100 µM and 64 µg/mL; in experiment [6], 200 µM and 128 µg/mL. In the experiment on CHO-K1 cells, the IC50 was > 100 µM and > 68 µg/mL.
In the case of `COC(=O)[C@H](NC(=O)CC[C@@H](C)[C@H]1CCC2C3CC[C@@H]4C[C@@H](NCCCN(CCCN)CCCN)CC[C@]4(C)C3C[C@H](O)[C@@]21C)C(C)C` (stereo partly drawn) [Compound S054, methyl ((4R)-4-((3S,5R,10S,12S,13R,17R)-3-((3-(bis(3-aminopropyl)amino)propyl)amino)-12-hydroxy-10,13-dimethylhexadecahydro-1H-cyclopenta[a]phenanthren-17-yl)pentanoyl)-D-valinate], the MIC was 100 µM and 64 µg/mL in experiment [3]; 6.25 µM and 4 µg/mL in experiment [4]; 50 µM and 32 µg/mL in experiment [5]; 100 µM and 64 µg/mL in experiment [6]. Also, the IC50 in the experiment on CHO-K1 cells was > 100 µM and > 67 µg/mL.
Consider `COC(=O)[C@@H](NC(=O)CC[C@@H](C)[C@H]1CCC2C3CC[C@@H]4C[C@@H](NCCCNCCCCNCCCN)CC[C@]4(C)C3CC[C@@]21C)C(C)C` (stereo partly drawn) [Compound S057, methyl ((4R)-4-((3S,5R,10S,13R,17R)-3-((3-((4-((3-aminopropyl)amino)butyl)amino)propyl)amino)-10,13-dimethylhexadecahydro-1H-cyclopenta[a]phenanthren-17-yl)pentanoyl)-L-valinate], for which the MIC in experiment [3] is 6.25 µM and 4 µg/mL; in experiment [4], 3.12 µM and 2 µg/mL; in experiment [5], 3.12 µM and 2 µg/mL; in experiment [6], 3.12 µM and 2 µg/mL. The half-maximal inhibitory concentration (IC50) with CHO-K1 cells is 30.2 µM and 20.4 µg/mL.
For the compound `COC(=O)[C@H](NC(=O)CC[C@@H](C)[C@H]1CCC2C3C(C[C@H](O)[C@@]21C)[C@@]1(C)CC[C@H](NCCCNCCCCNCCCN)C[C@H]1C[C@H]3O)C(C)C` (stereo partly drawn) [Compound S058, methyl ((4R)-4-((3S,5S,7R,10S,12S,13R,17R)-3-((3-((4-((3-aminopropyl)amino)butyl)amino)propyl)amino)-7,12-dihydroxy-10,13-dimethylhexadecahydro-1H-cyclopenta[a]phenanthren-17-yl)pentanoyl)-D-valinate], the MIC in experiment [3] was 50 µM and 32 µg/mL; in experiment [4], 12.5 µM and 8 µg/mL; in experiment [5] it was 100 µM and 64 µg/mL; in experiment [6], 100 µM and 64 µg/mL. For the same compound, the IC50 in the experiment with CHO-K1 cells was 6.55 µM and 4.63 µg/mL.
For the compound `COC(=O)[C@H](NC(=O)CC[C@@H](C)[C@H]1CCC2C3C(C[C@H](O)[C@@]21C)[C@@]1(C)CC[C@H](NCCCN2CCN(CCCN)CC2)C[C@H]1C[C@H]3O)C(C)C` (stereo partly drawn) [Compound S059, methyl ((4R)-4-((3S,5S,7R,10S,12S,13R,17R)-3-((3-(4-(3-aminopropyl)piperazin-1-yl)propyl)amino)-7,12-dihydroxy-10,13-dimethylhexadecahydro-1H-cyclopenta[a]phenanthren-17-yl)pentanoyl)-D-valinate], the MIC is > 200 µM and > 128 µg/mL in experiment [3]; 50 µM and 32 µg/mL in experiment [4]; 200 µM and 128 µg/mL in experiment [5]; > 200 µM and > 128 µg/mL in experiment [6]. Also, the IC50 with CHO-K1 cells was 56.1 µM and 39.5 µg/mL.
For the compound `COC(=O)[C@@H](Cc1ccc(O)cc1)NC(=O)CC[C@@H](C)[C@H]1CCC2C3C(C[C@H](O)[C@@]21C)[C@@]1(C)CC[C@H](NCCCNCCCCNCCCN)C[C@H]1C[C@H]3O` (stereo partly drawn) [Compound S061, methyl ((4R)-4-((3S,5S,7R,10S,12S,13R,17R)-3-((3-((4-((3-aminopropyl)amino)butyl)amino)propyl)amino)-7,12-dihydroxy-10,13-dimethylhexadecahydro-1H-cyclopenta[a]phenanthren-17-yl)pentanoyl)-D-tyrosinate], the MIC was 100 µM and 64 µg/mL in experiment [3]; 6.25 µM and 4 µg/mL in experiment [4]; 100 µM and 64 µg/mL in experiment [5]; 100 µM and 64 µg/mL in experiment [6]. The IC50 with CHO-K1 cells is 6.85 µM and 5.17 µg/mL.

For the origin of these results see US20260250312A1, “ANTIBACTERIAL COMPOUNDS ELIMINATING DORMANT BACTERIAL CELLS” (UNIVERSITÉ D'AIX-MARSEILLE, priority 2022, published 2026).
